# Test results as given in patent publication US4820703A, “PAF-antagonistic thienotriazolodiazepine compounds and pharmaceutical uses thereof” (Yoshitomi Pharmaceutical Industries Ltd., priority 1986, dated 1989).
# Columns and labels:
# platelet aggregation = experiment: Inhibitory effect on platelet aggregation in rabbits (ex vivo test); parameters: species or system rabbit; conditions: 3 animals
# Method: (§1) Aggregation ability was measured with a turbidimetric device (6-channel NKK Hematracer 1, model PAT-6A) according to the method of G.V.R. Born described in J. Physiology, vol. 168, p. 178 (1963). The aggregometer was adjusted in sensitivity to give light transmission vaues of 0 and 100% for PRP and PPP, respectively. With stirring at 1000 rpm, 0.3 μl of test compound solution or vehicle was added to 0.3 ml of PRP. After the mixture was kept at 37° C. for 2 minutes, to the mixture was added 3 μl PAF (Serdary Research Lab.) at the final concentration of 1.8×10^-7 M and the light transmission was recorded for 5 minutes.
# (§2) The inhibition percentage of test compounds on platelet aggregation were calculated from the following formula by measuring the maximal light transmission in the presence and absence of the test compounds. [formula]
# Test compound was orally administered to rabbit instead of adding it to PRP as in vitro test of Experiment 1, and then the citrated blood samples (9 volumes of blood+1 volume of 3.8% sodium citrate) were collected with the passage of time. Then, the blood samples were employed to determine the inhibitory effect at 1, 3, 6 and 24 hours after the administration of test compounds, respectively, according to Experiment 1.
# PAF-induced lethal shock = experiment: Effect on PAF-induced lethal shock in mice; type: in vivo, mice (male ICR); conditions: 80 μg/kg PAF i.v., 24 hours
# Method: The experiment was carried out according to the method of Young et al. described in Prostaglandins, vol. 30, p. […] Groups of 9 to 15 male ICR mice (Charles River) weighing 25-30 g were used. 80 μg/kg of PAF (Serdary Research Lab.) solution was intravenously administered in a lateral tail vein 1 hour after the oral administration of test compound (0.1 ml/10 g). […] Results were given as number of survivors/number of employed animals and survival rates (%) in Table 3.
# [1] = test system: PAF-induced platelet aggregation; experiment: Inhibitory effect on PAF-induced platelet aggregation in rabbits (in vitro test); type: cell-based; conditions: Oryctolagus cuniculus, rabbit PRP, PAF 1.8×10^-7 M, 37° C., read-out: Inhibition of PAF-induced platelet aggregation, IC50
# Method: Blood samples to which was added 0.1 volume of 3.8% sodium citrate were collected from rabbits. Platelet rich plasma (PRP) was prepared by centrifuging the blood sample at 200×g for 10 minutes, and platelet poor plasma (PPP) was prepared by centrifuging the remaining blood sample at 1000×g for 10 minutes.
# as §1
# In all experiments, PAF was dissolved in ethanol at the concentration of 100 μg/ml, and, when used, diluted with 0.9% saline solution.
# as §2
# PAF-induced foot edema = experiment: Effect on PAF edema (PAF-induced foot edema in rats); type: in vivo, rats (male Donryu); conditions: 1 hour after PAF 5 μg s.c.
# Method: The experiment was carried out according to the method of Swingle et al. described in Agents and Actions, vol. 18, p. 359 (1986). Groups of five male Donryu rats weighing about 150 g were used. One hour after the oral administration of test compound (25 ml/kg), 5 μg/0.05 ml of PAF solution was subcutaneously injected to the paw of the right hind leg. The foot volume of the hind leg was measured 1 hour after the injection. The increasing ratios of foot volume before and after PAF injection were calculated.
# central system = conditions: U.S. Pat. No. 3,904,641; cited from earlier work
# benzodiazepine receptor = conditions: well-known; cited from earlier work
# [2] = test system: platelet-activating factor (PAF); conditions: literature (Japan. J. Pharmacol. 1987; EP-A 194416); cited from earlier work
# [3] = 3 mg/kg p.o., 1 hour after administration
# [4] = 3 mg/kg p.o., 3 hours after administration
# [5] = 3 mg/kg p.o., 6 hours after administration
# [6] = 3 mg/kg p.o., 24 hours after administration
compound,measurement,setting,value
"Cc1nnc2n1-c1sc(CCc3ccc(CC(C)C)cc3)cc1C(c1ccccc1Cl)=NC2 [Compound A, 4-(2-chlorophenyl)-2-[2-(4-isobutylphenyl)ethyl]-9-methyl-6H-thieno[3,2-f][1,2,4]triazolo[4,3-a][1,4]diazepine]",% of inhibition,platelet aggregation; [3],97±3%
same,% of inhibition,platelet aggregation; [4],100±0%
same,% of inhibition,platelet aggregation; [5],100±0%
same,% of inhibition,platelet aggregation; [6],100±0%
same,Survival rate,PAF-induced lethal shock; 3.0 mg/kg p.o.,100.0%
same,number of survivors/number of employed animals,PAF-induced lethal shock; 3.0 mg/kg p.o.,9/9
same,IC50,[1],0.003 to 0.01 µg/mL
same,Inhibition (foot edema),PAF-induced foot edema; 0.3 mg/kg oral,31%
same,Inhibition (foot edema),PAF-induced foot edema; 1 mg/kg oral,51%
same,Inhibition (foot edema),PAF-induced foot edema; 3 mg/kg oral,59%
"Cc1ccc(CCc2cc3c(s2)-n2c(C)nnc2CN=C3c2ccccc2Cl)cc1 [Compound B, 4-(2-chlorophenyl)-2-[2-(4-methylphenyl)ethyl]-9-methyl-6H-thieno[3,2-f][1,2,4]triazolo[4,3-a][1,4]diazepine]",IC50,[1],0.01 to 0.03 µg/mL
"Cc1nnc2n1-c1sc(CCCCc3ccc(CC(C)C)cc3)cc1C(c1ccccc1Cl)=NC2 [Compound C, 4-(2-chlorophenyl)-2-[4-(4-isobutylphenyl)butyl]-9-methyl-6H-thieno[3,2-f][1,2,4]triazolo[4,3-a][1,4]diazepine]",Survival rate,PAF-induced lethal shock; 3.0 mg/kg p.o.,100.0%
same,number of survivors/number of employed animals,PAF-induced lethal shock; 3.0 mg/kg p.o.,9/9
same,IC50,[1],0.03 to 0.1 µg/mL
"COc1ccc(CCc2cc3c(s2)-n2c(C)nnc2CN=C3c2ccccc2Cl)cc1 [Compound D, 4-(2-chlorophenyl)-2-[2-(4-methoxyphenyl)ethyl]-9-methyl-6H-thieno[3,2-f][1,2,4]triazolo[4,3-a][1,4]diazepine]",IC50,[1],0.01 to 0.03 µg/mL
"CCCCc1ccc(CCc2cc3c(s2)-n2c(C)nnc2CN=C3c2ccccc2Cl)cc1 [Compound E, 4-(2-chlorophenyl)-2-[2-(4-n-butylphenyl)ethyl]-9-methyl-6H-thieno[3,2-f][1,2,4]triazolo[4,3-a][1,4]diazepine]",% of inhibition,platelet aggregation; [3],100±0%
same,% of inhibition,platelet aggregation; [4],100±0%
same,% of inhibition,platelet aggregation; [5],100±0%
same,% of inhibition,platelet aggregation; [6],94±6%
same,Survival rate,PAF-induced lethal shock; 1.0 mg/kg p.o.,70.0%
same,number of survivors/number of employed animals,PAF-induced lethal shock; 1.0 mg/kg p.o.,7/10
same,Survival rate,PAF-induced lethal shock; 3.0 mg/kg p.o.,100.0%
same,number of survivors/number of employed animals,PAF-induced lethal shock; 3.0 mg/kg p.o.,10/10
same,IC50,[1],0.01 µg/mL
same,Inhibition (foot edema),PAF-induced foot edema; 0.1 mg/kg oral,55%
same,Inhibition (foot edema),PAF-induced foot edema; 1 mg/kg oral,78%
same,Inhibition (foot edema),PAF-induced foot edema; 3 mg/kg oral,75%
"Cc1nnc2n1-c1sc(CCc3ccc(-c4ccccc4)cc3)cc1C(c1ccccc1Cl)=NC2 [Compound F, 4-(2-chlorophenyl)-2-[2-(4-phenylphenyl)ethyl]-9-methyl-6H-thieno[3,2-f][1,2,4]triazolo[4,3-a][1,4]diazepine]",IC50,[1],0.01 to 0.03 µg/mL
"Cc1nnc2n1-c1sc(CCc3ccccc3)cc1C(c1ccccc1Cl)=NC2 [Compound G, 4-(2-chlorophenyl)-2-(2-phenylethyl)-9-methyl-6H-thieno[3,2-f][1,2,4]triazolo[4,3-a][1,4]diazepine]",IC50,[1],0.03 to 0.1 µg/mL
"Cc1nnc2n1-c1sc(Cc3ccc(CC(C)C)cc3)cc1C(c1ccccc1Cl)=NC2 [Compound H, 4-(2-chlorophenyl)-2-(4-isobutylbenzyl)-9-methyl-6H-thieno[3,2-f][1,2,4]triazolo[4,3-a][1,4]diazepine]",IC50,[1],0.003 to 0.01 µg/mL
"Cc1nnc2n1-c1sc(CCCc3ccc(CC(C)C)cc3)cc1C(c1ccccc1Cl)=NC2 [Compound I, 4-(2-chlorophenyl)-2-[3-(4-isobutylphenyl)propyl]9-methyl-6H-thieno[3,2-f][1,2,4]triazolo[4,3-a][1,4]diazepine]",IC50,[1],0.01 µg/mL
"CCc1nnc2n1-c1sc(CCc3ccc(CC(C)C)cc3)cc1C(c1ccccc1Cl)=NC2 [Compound J, 4-(2-chlorophenyl)-9-ethyl-2-[2-(4-isobutylphenyl)ethyl]-6H-thieno[3,2-f][1,2,4]triazolo[4,3-a][1,4]diazepine]",IC50,[1],0.01 to 0.03 µg/mL
"Cc1nnc2n1-c1sc(CCc3ccc(CC(C)C)cc3)cc1C(c1ccccc1Cl)=NC2C (centres unmarked) [Compound K, 4-(2-chlorophenyl)-2-[2-(4-isobutylphenyl)ethyl]-6,9-dimethyl-6H-thieno[3,2-f][1,2,4]triazolo[4,3-a][1,4]diazepine]",IC50,[1],0.01 to 0.03 µg/mL
"CCCCc1ccc(CCc2cc3c(s2)-n2c(C)nnc2C(C)N=C3c2ccccc2Cl)cc1 (centres unmarked) [Compound L, 4-(2-chlorophenyl)-2-[2-(4-n-butylphenyl)ethyl]6,9-dimethyl-6H-thieno[3,2-f][1,2,4]triazolo[4,3-a][1,4]diazepine]",IC50,[1],0.01 to 0.03 µg/mL
"CCc1cc2c(s1)-n1c(C)nnc1CN=C2c1ccccc1Cl [Etizolam, 6-(o-chlorophenyl)-8-ethyl-1-methyl-4H-s-triazolo[3,4-c]thieno[2,3-e][1,4]diazepine, reference compound]",pharmacological activities against the central nervous system,central system,antianxiety or anticonvulsant activities
same,affinity for the benzodiazepine receptor,benzodiazepine receptor,high affinity
same,% of inhibition,"platelet aggregation; 10 mg/kg p.o., printed once for the 1, 3, 6, 24 hours columns",no effect
same,IC50,[1],1.3 µg/mL
same,antagonistic activity on PAF,[2],exhibits antagonistic activity
same,Inhibition (foot edema),PAF-induced foot edema; 10 mg/kg oral,38%
same,Inhibition (foot edema),PAF-induced foot edema; 25 mg/kg oral,54%
